Type in all cases: physicochemical
A short description of series [1]: Solid-state stability test, one week, HPLC purity. The conditions noted are these: for HPLC purity 1 week: open container; for HPLC purity, Initial purity: before storage. The procedure:
Experimental method: appropriate amount of samples were respectively weighed and placed in open containers under the conditions of light illumination of 4500 lux, 25° C./60% RH and 40° C./75% RH to perform solid-state stability test evaluation for one week. One week later, the purities of the test samples were tested by HPLC to detect the change of purity. Three groups of parallel tests were set for each test condition.
High performance liquid chromatograms were collected on an Agilent 1100 HPLC.

Series [2] can be described thus: Solubility test in water, FaSSIF and FeSSIF (24 h, 37° C., HPLC concentration). The conditions noted are these: initial feeding amount 10 mg/ml; for solubility at 24 h: 37 °C, thermodynamic from solid. The procedure:
Experimental method: the solubility test was carried out in three solvents including water, fasted state simulated intestinal fluid (FaSSIF) and fed state simulated intestinal fluid (FeSSIF), to evaluate the solubilities of the salts of the present invention.
In the experiment, the sample and the solvent were mixed in a centrifuge tube (the initial feeding amount was 10 mg/ml), then the centrifuge tube was sealed and fixed on a rotating disk with a rotation speed of 25 rpm, and sampling was performed after rotating and mixing for 24 h at 37° C. The turbid sample was subjected to centrifugal separation, and the filtered supernatant was measured for HPLC concentration. If the sample solution was clear, the concentration of the obtained solution was measured.

The nature of series [3]: Dynamic moisture adsorption (DVS) hygroscopicity test. As to conditions: for Hygroscopicity (moisture adsorption capacity): DVS, 25° C./80% RH; for Whether the crystal form has a change: XRPD before and after DVS test. The procedure: The moisture adsorption capacities of the representative salts and the free base of the above Examples and Comparative Examples were tested when the humidity reached 80% RH through a dynamic moisture adsorption (DVS) test at 25° C., so as to compare the hygroscopicities.
Experimental results: the test results are shown in Table 13, wherein, >15% means very hygroscopic, 2% to 15% means hygroscopic, 0.2% to 2% means slightly hygroscopic, and <0.2% means almost non-hygroscopic.

Setting [4] is: FaSSIF, fassif, fasted state simulated intestinal fluid, read-out: Solubility in FaSSIF.
Setting [5] is: FeSSIF, fessif, fed state simulated intestinal fluid, read-out: Solubility in FeSSIF.
The mark [6] stands for this setting: water, water, water, read-out: Solubility in water.
[7] abbreviates: fasted state simulated intestinal fluid.
[8] abbreviates: fed state simulated intestinal fluid.

We go through seven molecules from patent publication US20220168302A1, “SALTS OF A COMPOUND, CRYSTAL FORMS OF THE SALTS AND PREPARATION METHOD AND USE THEREOF” (Gan & Lee Pharmaceuticals Co., Ltd., priority 2019, published 2022).

Values after ≈ are worked out from the molar mass of the structure shown. Like-named read-outs stand apart in the source and are kept apart here.

As for `CC1=Nc2c(F)cc(-c3nc(Nc4ccc(C5CCN(C)CC5)cn4)ncc3F)cc2C12CCCC2.O=C(O)/C=C/C(=O)O` [Fumarate crystal form A, Fumarate of 5-fluoro-4-(7′-fluoro-2′-methylspiro[cyclopentane-1,3′-indol]-5′-yl)-N-(5-(1-methylpiperidin-4-yl)pyridin-2-yl)pyrimidine-2-amine], the “HPLC purity 1 week Relative to the initial purity” value in series [1] (25° C./60% RH) was 100.0%; in series [1] (40° C./75% RH), 100.0%; in series [1] (40° C./75% RH, listed as fumarate crystal form A), 100%; in series [1] (Light illumination 4500 lux) it was 100.0%; in series [1] (Light illumination 4500 lux, listed as fumarate crystal form A), 100%. The “HPLC purity 1 week” value in series [1] (25° C./60% RH) amounted to 99.89 Area %; in series [1] (40° C./75% RH), 99.88 Area %; in series [1] (Light illumination 4500 lux), 99.89 Area %. Moreover, the “HPLC purity, Initial purity” value in series [1] was found to be 99.92 Area %. Besides, the solubility – broadly, the dissolved amount per volume that the medium holds – at 24 h in series [2] (setting [4]) was 7600 µg/mL; in series [2] (setting [5]) it was 8000 µg/mL. In series [2] (water), this molecule came in with a Solubility in water of 6300 µg/mL. In series [3], the “Hygroscopicity (moisture adsorption capacity)” value (“Hygroscopicity” below) is 0.35%. In addition, the “Whether the crystal form has a change” value in series [3] is recorded as “No change”; in series [3] (listed as fumarate crystal form A), “no change”.
`CC1=Nc2c(F)cc(-c3nc(Nc4ccc(C5CCN(C)CC5)cn4)ncc3F)cc2C12CCCC2.CS(=O)(=O)O` [Methanesulfonate crystal form A, Methanesulfonate of 5-fluoro-4-(7′-fluoro-2′-methylspiro[cyclopentane-1,3′-indol]-5′-yl)-N-(5-(1-methylpiperidin-4-yl)pyridin-2-yl)pyrimidine-2-amine, reference compound]: the entries for the “HPLC purity 1 week Relative to the initial purity” value in series [1] (25° C./60% RH), in series [1] (40° C./75% RH) and in series [1] (Light illumination 4500 lux) were 99.9%, 99.4% and 98.5%, respectively. Besides, the figures for the “HPLC purity 1 week” value in series [1] (25° C./60% RH), in series [1] (40° C./75% RH) and in series [1] (Light illumination 4500 lux) were 99.73 Area %, 99.16 Area % and 98.28 Area %, respectively. The “HPLC purity, Initial purity” value in series [1] is 99.81 Area %. Further, in series [3], the “Hygroscopicity” value is 12.02%. For the same molecule, the “Whether the crystal form has a change” value in series [3] is recorded as “Change”; in series [3] (listed as methanesulfonate crystal form A), “changed to amorphous”.
Take `CC1=Nc2c(F)cc(-c3nc(Nc4ccc(C5CCN(C)CC5)cn4)ncc3F)cc2C12CCCC2.O=C(O)CCC(=O)O` [Succinate crystal form A, Succinate of 5-fluoro-4-(7′-fluoro-2′-methylspiro[cyclopentane-1,3′-indol]-5′-yl)-N-(5-(1-methylpiperidin-4-yl)pyridin-2-yl)pyrimidine-2-amine]: the “HPLC purity 1 week Relative to the initial purity” value is 100.0% in series [1] (25° C./60% RH); 100.00% in series [1] (40° C./75% RH); 100% in series [1] (40° C./75% RH, listed as succinate crystal form A); 100.0% in series [1] (Light illumination 4500 lux); 100% in series [1] (Light illumination 4500 lux, listed as succinate crystal form A). Further, the “HPLC purity 1 week” value in series [1] (25° C./60% RH), in series [1] (40° C./75% RH) and in series [1] (Light illumination 4500 lux) was 99.90 Area % throughout. Besides, the “HPLC purity, Initial purity” value in series [1] is recorded as 99.94 Area %. Moreover, the figures for the solubility at 24 h in series [2] (setting [4]), in series [2] (setting [5]) and in series [2] (setting [6]) were 6400 µg/mL, 10700 µg/mL and 7500 µg/mL, respectively. The “Hygroscopicity” value in series [3] was 0.33%. Further, the entries for the “Whether the crystal form has a change” value in series [3] and in series [3] (listed as succinate crystal form A) were “No change” and “no change”, respectively.
Regarding `CC1=Nc2c(F)cc(-c3nc(Nc4ccc(C5CCN(C)CC5)cn4)ncc3F)cc2C12CCCC2` [Adipate crystal form A, Adipate of 5-fluoro-4-(7′-fluoro-2′-methylspiro[cyclopentane-1,3′-indol]-5′-yl)-N-(5-(1-methylpiperidin-4-yl)pyridin-2-yl)pyrimidine-2-amine], the “HPLC purity 1 week Relative to the initial purity” value was found to be 100.0% in series [1] (25° C./60% RH); 100.0% in series [1] (40° C./75% RH); 100% in series [1] (40° C./75% RH, listed as adipate crystal form A); 100.0% in series [1] (Light illumination 4500 lux); 100% in series [1] (Light illumination 4500 lux, listed as adipate crystal form A). In addition, the figures for the “HPLC purity 1 week” value in series [1] (25° C./60% RH), in series [1] (40° C./75% RH) and in series [1] (Light illumination 4500 lux) were 99.88 Area %, 99.89 Area % and 99.88 Area %, respectively. For the same molecule, the “HPLC purity, Initial purity” value in series [1] worked out at 99.90 Area %. For the same molecule, the “Solubility in FaSSIF” value in series [2] (setting [7]) is 6800 µg/mL (≈ 13.9 mM). Further, the “Solubility in FeSSIF” value in series [2] (setting [8]) is 11600 µg/mL (≈ 23.7 mM). Besides, the Solubility in water in series [2] (water) was 6500 µg/mL (≈ 13.3 mM). In series [3], the “Hygroscopicity” value is recorded as 0.22%. Moreover, the “Whether the crystal form has a change” value is “No change” in series [3] and “no change” in series [3] (listed as adipate crystal form A).
In the case of `CC1=Nc2c(F)cc(-c3nc(Nc4ccc(C5CCN(C)CC5)cn4)ncc3F)cc2C12CCCC2.O=C(O)/C=C\C(=O)O` [Maleate crystal form B, Maleate of 5-fluoro-4-(7′-fluoro-2′-methylspiro[cyclopentane-1,3′-indol]-5′-yl)-N-(5-(1-methylpiperidin-4-yl)pyridin-2-yl)pyrimidine-2-amine], the “HPLC purity 1 week Relative to the initial purity” value in series [1] (25° C./60% RH) came out at 100.0%; in series [1] (40° C./75% RH) it was 100.0%; in series [1] (40° C./75% RH, listed as maleate crystal form B) it was 100%; in series [1] (Light illumination 4500 lux), 99.9%. The “HPLC purity 1 week” value in series [1] (25° C./60% RH) was found to be 99.88 Area %; in series [1] (40° C./75% RH), 99.89 Area %; in series [1] (Light illumination 4500 lux), 99.83 Area %. In series [1], the “HPLC purity, Initial purity” value came to 99.91 Area %. Also, the solubility at 24 h in series [2] (setting [4]) is 7100 µg/mL; in series [2] (setting [5]) it was 7800 µg/mL; in series [2] (setting [6]), 12900 µg/mL. For the same molecule, in series [3], the “Hygroscopicity” value came out at 2.00%. Further, the “Whether the crystal form has a change” value in series [3] is listed as “No change”; in series [3] (listed as maleate crystal form B) it was “no change”.
On to `CC1=Nc2c(F)cc(-c3nc(Nc4ccc(C5CCN(C)CC5)cn4)ncc3F)cc2C12CCCC2.Cl` [Hydrochloride crystal form B, Hydrochloride of 5-fluoro-4-(7′-fluoro-2′-methylspiro[cyclopentane-1,3′-indol]-5′-yl)-N-(5-(1-methylpiperidin-4-yl)pyridin-2-yl)pyrimidine-2-amine, reference compound], for which, in series [3], the “Hygroscopicity” value stood at 9.12% and the “Whether the crystal form has a change” value is reported as “Change”. Moreover, the “Whether the crystal form has a change” value in series [3] (listed as hydrochloride crystal form B) is “changed to amorphous”.
As to `CC1=Nc2c(F)cc(-c3nc(Nc4ccc(C5CCN(C)CC5)cn4)ncc3F)cc2C12CCCC2.O=C(O)/C=C/C(=O)O` [Fumarate crystal form C, Fumarate of 5-fluoro-4-(7′-fluoro-2′-methylspiro[cyclopentane-1,3′-indol]-5′-yl)-N-(5-(1-methylpiperidin-4-yl)pyridin-2-yl)pyrimidine-2-amine], the “HPLC purity 1 week Relative to the initial purity” value in series [1] (25° C./60% RH) is 100.0%; in series [1] (40° C./75% RH), 100.0%; in series [1] (40° C./75% RH, listed as fumarate crystal form C), 100%; in series [1] (Light illumination 4500 lux) it was 100.0%; in series [1] (Light illumination 4500 lux, listed as fumarate crystal form C), 100%. The results for the “HPLC purity 1 week” value in series [1] (25° C./60% RH), in series [1] (40° C./75% RH) and in series [1] (Light illumination 4500 lux) were 99.48 Area %, 99.48 Area % and 99.46 Area %, respectively. In series [1], the “HPLC purity, Initial purity” value came out at 99.48 Area %. Further, the “Solubility in FaSSIF” value in series [2] (setting [7]) was 5900 µg/mL. Besides, the “Solubility in FeSSIF” value in series [2] (setting [8]) was 13600 µg/mL. In series [2] (water), this molecule showed a Solubility in water of 480 µg/mL.
